Among the data in US9802927B2, “Oxadiazine compounds and methods of use thereof” (Denali Therapeutics, Inc., priority 2015, dated 2017) are EC50 values, retold here.

The subject of the test is Aβ42. Nature of the test: In vitro cell screening assay in H4 cells expressing human APP751: Aβ42 by sandwich ELISA. It is filed as cell-based. The conditions noted are these: compounds 0.003-10 μM, incubated overnight (16-18 h), sandwich ELISA of supernatant. The method, then:
Human neuroglioma H4 cells were transfected with a pcDNA3.1 plasmid expressing human wild type APP751 cDNA and a stable cell line was generated using G418 selection. Cells were plated at 15,000 cells/well in Costar 96-well plates and placed at 37° C. and 5% CO2. Six hours after plating, cells were washed three times with Pro293™ chemically defined medium, followed by addition of compounds (0.003-10 μM, final DMSO concentration of 0.33%). Plates were incubated overnight (16-18 h) and supernatant was removed for quantification of Aβ peptides by sandwich ELISA. Cytotoxicity was evaluated using Cell-Titer 96W AQueous One Solution Cell Proliferation Assay according to the manufacturer's protocol.
Aβ peptide levels were quantified by sandwich ELISA. 96-well plates were coated with C-terminal specific Aβ antibodies recognizing either Aβ37, Aβ38, Aβ40, Aβ42, Aβ43 or a N-terminal specific Aβ antibody to detect Aβ 1-x. Plates were then blocked overnight at 4° C. with 1% bovine serum albumin (BSA) in PBS-T. Plates were washed and 100 μl of cultured cell supernatant or synthetic Aβ peptide standards and a detection antibody (4G8-HRP) were applied to the blocked plate and incubated overnight at 4° C. The next day, wells were washed before the addition of detection substrate (TMB peroxidase). Plates were then read for absorbance at 450 nm on a Molecular Devices SpectraMax M5e Microplate Reader.
Compound-treated samples were normalized to samples treated with DMSO alone (no inhibition) and to samples treated with DAPT. EC50 values were calculated from values reported as percent of DMSO controls using nonlinear regression, based on a sigmoidal dose response (variable slope) model. GraphPAD software from Prism used for calculation.
A general note: In an ELISA, binding on a coated surface is turned into a signal by an enzyme label.

Where only a bound is given, the exact number is not on record here.

Regarding `COc1nc(C2=NOCC(c3nc4ccccc4s3)N2)ccc1-n1cnc(C)c1` (single isomer, unassigned; (-)) [Example 208A, (−)-5-(benzo[d]thiazol-2-yl)-3-(6-methoxy-5-(4-methyl-1H-imidazol-1-yl)pyridin-2-yl)-5,6-dihydro-4H-1,2,4-oxadiazine], the EC50 – broadly, the midpoint of the concentration-response curve – is more than 3000 nM. Same read-out and setting: for `COc1nc(C2=NOCC(c3ccc(Cl)c(Cl)c3)N2)ccc1-n1cnc(C)c1` (single isomer, unassigned; (+)) [Example 49B, (+)-5-(3,4-dichlorophenyl)-3-(6-methoxy-5-(4-methyl-1H-imidazol-1-yl)pyridin-2-yl)-5,6-dihydro-4H-1,2,4-oxadiazine] the value was 11.4 nM; for `COc1nc(C2=NOCC(c3cn(C)c4cc(F)c(C(F)(F)F)cc34)N2)ccc1-n1cnc(C)c1` (single isomer, unassigned; (-)) [Example 104A, (−)-5-(6-fluoro-1-methyl-5-(trifluoromethyl)-1H-indol-3-yl)-3-(6-methoxy-5-(4-methyl-1H-imidazol-1-yl)pyridin-2-yl)-5,6-dihydro-4H-1,2,4-oxadiazine], 167 nM. In turn, `COc1nc(C2=NOCC(c3cccc(C4CC4)c3)N2)ccc1-n1cnc(C)c1` (single isomer, unassigned; (-)) [Example 127A, (−)-5-(3-cyclopropylphenyl)-3-(6-methoxy-5-(4-methyl-1H-imidazol-1-yl)pyridin-2-yl)-5,6-dihydro-4H-1,2,4-oxadiazine] had an EC50 of 1030 nM.

`COc1nc(C2=NOCC(c3ccccc3Cl)N2)ccc1-n1cnc(C)c1` (single isomer, unassigned) [Example 136A, 5-(2-chlorophenyl)-3-(6-methoxy-5-(4-methyl-1H-imidazol-1-yl)pyridin-2-yl)-5,6-dihydro-4H-1,2,4-oxadiazine] displayed an EC50 of 143 nM.

On to `COc1nc(C2=NOCC(c3ccc(C(C)(C)C)cc3)N2)ccc1-n1cnc(C)c1` (single isomer, unassigned; (+)) [Example 235B, (+)-5-(4-(tert-butyl)phenyl)-3-(6-methoxy-5-(4-methyl-1H-imidazol-1-yl)pyridin-2-yl)-5,6-dihydro-4H-1,2,4-oxadiazine], for which the midpoint of the response, the EC50, lay at 9.5 nM. On the same count and under the same terms, with `COc1cc(C2=NOCC(c3nc4cccc(C)c4o3)N2C)ccc1-n1cnc(C)c1` (single isomer, unassigned; (+)) [Example 212A, (+)-2-(3-(3-methoxy-4-(4-methyl-1H-imidazol-1-yl)phenyl)-4-methyl-5,6-dihydro-4H-1,2,4-oxadiazin-5-yl)-7-methylbenzo[d]oxazole] the figure was 789 nM; with `COc1nc(C2=NOCC(c3cc4ccc(Cl)cc4o3)N2)ccc1-n1cnc(C)c1` (single isomer, unassigned; (-)) [Example 78A, (−)-5-(6-chlorobenzofuran-2-yl)-3-(6-methoxy-5-(4-methyl-1H-imidazol-1-yl)pyridin-2-yl)-5,6-dihydro-4H-1,2,4-oxadiazine], 1280 nM; with `COc1nc(C2=NOCC(c3ccc(Cl)c(C4CC4)c3)N2)ccc1-n1cnc(C)c1` (single isomer, unassigned; (-)) [Example 239A, (−)-5-(4-chloro-3-cyclopropylphenyl)-3-(6-methoxy-5-(4-methyl-1H-imidazol-1-yl)pyridin-2-yl)-5,6-dihydro-4H-1,2,4-oxadiazine], 920 nM. The same measure, in the same setting: for `COc1nc(C2=NOCC(c3cn(C)c4cc(F)c(C)cc34)N2)ccc1-n1cnc(C)c1` (single isomer, unassigned; (+)) [Example 257B, (+)-5-(6-fluoro-1,5-dimethyl-1H-indol-3-yl)-3-(6-methoxy-5-(4-methyl-1H-imidazol-1-yl)pyridin-2-yl)-5,6-dihydro-4H-1,2,4-oxadiazine] the value was 4.9 nM; for `COc1nc(C2=NOCC(c3ccc(C)cc3)N2)ccc1-n1cnc(C)c1` (single isomer, unassigned; (-)) [Example 227A, (−)-3-(6-methoxy-5-(4-methyl-1H-imidazol-1-yl)pyridin-2-yl)-5-(p-tolyl)-5,6-dihydro-4H-1,2,4-oxadiazine], 958 nM. The same measure, in the same setting: for `COc1nc(C2=NOCC(c3cc(Cl)cc(Cl)c3)N2)ccc1-n1cnc(C)c1` (single isomer, unassigned; (+)) [Example 118B, (+)-5-(3,5-dichlorophenyl)-3-(6-methoxy-5-(4-methyl-1H-imidazol-1-yl)pyridin-2-yl)-5,6-dihydro-4H-1,2,4-oxadiazine] the value was 9.9 nM; for `COc1nc(C2=NOCC(c3ccc4c(c3)OC(F)(F)O4)N2)ccc1-n1cnc(C)c1` (single isomer, unassigned; (-)) [Example 225A], more than 3000 nM. Molecule `COc1nc(C2=NOCC(c3ccc(F)cc3F)N2)ccc1-n1cnc(C)c1` (single isomer, unassigned) [Example 129B, 5-(2,4-difluorophenyl)-3-(6-methoxy-5-(4-methyl-1H-imidazol-1-yl)pyridin-2-yl)-5,6-dihydro-4H-1,2,4-oxadiazine] returned an EC50 of 128 nM. Same read-out and setting: with `COc1nc(C2=NOCC(c3cn(C)c4ccc(Cl)cc34)N2)ccc1-n1cnc(C)c1` (single isomer, unassigned; (-)) [Example 193A, (−)-5-(5-chloro-1-methyl-1H-indol-3-yl)-3-(6-methoxy-5-(4-methyl-1H-imidazol-1-yl)pyridin-2-yl)-5,6-dihydro-4H-1,2,4-oxadiazine] the figure was 71 nM. Same read-out and setting: with `COc1nc(C2=NOCC(c3ccc(C4CC4)cc3)N2)ccc1-n1cnc(C)c1` (single isomer, unassigned; (-)) [Example 116A, (−)-5-(4-cyclopropylphenyl)-3-(6-methoxy-5-(4-methyl-1H-imidazol-1-yl)pyridin-2-yl)-5,6-dihydro-4H-1,2,4-oxadiazine] the figure was 767 nM; with `COc1nc(C2=NOCC(c3cc4c(F)cccc4o3)N2)ccc1-n1cnc(C)c1` (single isomer, unassigned; (+)) [Example 99A, (+)-5-(4-fluorobenzofuran-2-yl)-3-(6-methoxy-5-(4-methyl-1H-imidazol-1-yl)pyridin-2-yl)-5,6-dihydro-4H-1,2,4-oxadiazine], 856 nM. As for `COc1nc(C2=NOCC(c3c[nH]c4ccccc34)N2)ccc1-n1cnc(C)c1` (single isomer, unassigned) [Example 47B, 5-(1H-indol-3-yl)-3-(6-methoxy-5-(4-methyl-1H-imidazol-1-yl)pyridin-2-yl)-5,6-dihydro-4H-1,2,4-oxadiazine], the EC50 was 23.1 nM. The same measure, in the same setting: with `COc1cc(Cl)c2c(C3CON=C(c4ccc(-n5cnc(C)c5)c(OC)n4)N3)cn(C)c2c1` (single isomer, unassigned; (-)) [Example 261B, (−)-5-(4-chloro-6-methoxy-1-methyl-1H-indol-3-yl)-3-(6-methoxy-5-(4-methyl-1H-imidazol-1-yl)pyridin-2-yl)-5,6-dihydro-4H-1,2,4-oxadiazine] the figure was 21.2 nM; with `COc1nc(C2=NOCC(c3cn(C)c4cc(F)c(Cl)cc34)N2)ccc1-n1cnc(C)c1` (single isomer, unassigned; (+)) [Example 216B, (+)-5-(5-chloro-6-fluoro-1-methyl-1H-indol-3-yl)-3-(6-methoxy-5-(4-methyl-1H-imidazol-1-yl)pyridin-2-yl)-5,6-dihydro-4H-1,2,4-oxadiazine], 4.2 nM. Same read-out and setting: with `COc1nc(C2=NOCC(c3ccc4scnc4c3)N2)ccc1-n1cnc(C)c1` (single isomer, unassigned; (+)) [Example 240B, (+)-5-(benzo[d]thiazol-5-yl)-3-(6-methoxy-5-(4-methyl-1H-imidazol-1-yl)pyridin-2-yl)-5,6-dihydro-4H-1,2,4-oxadiazine] the figure was 109 nM; with `COc1nc(C2=NOCC(C3CC(F)(F)C3)N2)ccc1-n1cnc(C)c1` (single isomer, unassigned; (+)) [Example 180B, (+)-5-(3,3-difluorocyclobutyl)-3-(6-methoxy-5-(4-methyl-1H-imidazol-1-yl)pyridin-2-yl)-5,6-dihydro-4H-1,2,4-oxadiazine], 281 nM; with `COc1nc(C2=NOCC(c3cc(F)c(F)c(F)c3)N2)ccc1-n1cnc(C)c1` (single isomer, unassigned; (-)) [Example 91A, (−)-3-(6-methoxy-5-(4-methyl-1H-imidazol-1-yl)pyridin-2-yl)-5-(3,4,5-trifluorophenyl)-5,6-dihydro-4H-1,2,4-oxadiazine], more than 3000 nM. Same read-out and setting: with `COc1nc(C2=NOCC(c3ccc4nc(C)sc4c3)N2)ccc1-n1cnc(C)c1` (single isomer, unassigned; (-)) [Example 238A, (−)-3-(6-methoxy-5-(4-methyl-1H-imidazol-1-yl)pyridin-2-yl)-5-(2-methylbenzo[d]thiazol-6-yl)-5,6-dihydro-4H-1,2,4-oxadiazine] the figure was more than 3000 nM. The molecule `COc1nc(C2=NOCC(c3cc4cccc(C)c4o3)N2)ccc1-n1cnc(Cl)c1` (single isomer, unassigned; (+)) [Example 24, (+)-3-(5-(4-Chloro-1H-imidazol-1-yl)-6-methoxypyridin-2-yl)-5-(7-methylbenzofuran-2-yl)-5,6-dihydro-4H-1,2,4-oxadiazine] had an EC50 (Homo sapiens) of 13.7 nM.
